According to patent US20220175818A1, “Inhibition of Monoamine Oxidase Subtype A (MAOA) Mitigates Cardiovascular Calcification” (The Brigham and Women's Hospital, Inc., priority 2019, published 2022):

Tested on: VICs
Assay: Alizarin red calcification assay of VICs grown in osteogenic media with MAOA inhibitors
Format: cell-based, human
Conditions: VICs grown in OM, 21 days, inhibitor 10 μM, PBS control, n=3, FIG. 7E
Description: Representative images, n=3 donors.
Osteogenic, chondrogenic, and adipogenic differentiation assays were conducted for samples of protein, RNA, and media collected at 0, 1, 2, and 3 weeks after changing media from growth media to specialized media. Alizarin Red. alizarin red (AR) 2% (Thermo Fisher Scientific), Alcian blue (AB) 1%, and oil red O (ORO) (Abcam) were used for osteogenic, chondrogenic, and adipogenic assays respectively. Cells plated in 48 or 96 well plates were washed with PBS and fixed for 15 minutes at room temperature with 10% formalin for AR and AB and 4% PFA for ORO. After washing with Milli-Q water, stains were added. […] The incubation times were 20 minutes (AR), 1 hour (AB), and 15 minutes in room temperature (ORO). Washes with Milli-Q water followed for the AR (3×) and AB (4×) stains. […] Pictures were taken using an iPhone7 (Apple) and the amount of dye released was quantified by spectrophotometry at 550 nm.

Question: Which “calcification (Alizarin red staining)” value does the source give for `O=C(NCCN1CCOCC1)c1ccc(Cl)cc1` [moclobemide, Moclobemide] here?
Answer: reduction of calcification

Question: How did the “calcification (Alizarin red staining)” value turn out when `Cc1ccc2c(c1)c1c3n2CCNC3CCC1` (centres unmarked) [pirindole] was run?
Answer: reduction of calcification
